Laboratory results published in US8569297B2, “1-benzyl-3-hydroxymethylindazole derivatives and use thereof in the treatment of diseases based on the expression of MCP-1 and CX3CR1” (Aziende Chimiche Riunite Angelini Francesco A.C.R.A.F. …, priority 2008, dated 2013).
Each block holds one molecule with its values, some of them ahead of it.

Tests used:
[1] = system: MCP-1; test: Analysis of the gene expression of MCP-1 in a human monocyte line (real-time RT-PCR); format: cell-based; conditions: 150 μM (maximum soluble concentration), 1 hour pre-incubation; MonoMac6 cells stimulated with LPS 100 ng/ml for 4 hours
Protocol: (§1) The capacity of compound 1 to inhibit the expression of MCP-1 by lipopolysaccharide (LPS)-stimulated MonoMac6 cells was evaluated. The cells were placed in 96-well plates at a concentration of 50 000 cells/well. The compound was tested at the maximum soluble concentration given in Table 1 (in the range 30-300 μM) and incubated for 1 hour. The cells were then stimulated with LPS (100 ng/ml) for 4 hours.
(§2) The total RNA was extracted from the cell pellet using the RNeasy mini kit (Qiagen), reverse-transcribed with the TaqMan Reverse transcription reagents synthesis kit (Applied Biosystems) and the cDNA obtained was used for the real-time PCR reaction. The amplification was obtained in 96-well plates using the ABI Prism 7000 sequence detection system (Applied Biosystems), by applying the following temperature profile: 50° C. for 2 minutes, 95° C. for 10 minutes and 45 cycles at 95° C. for 15 seconds and 60° C. for 1 minute. For the amplification, a set of primers and probe specific for human MCP-1 was used (Applied Biosystems, RefSeq NM_002982.3). […] Once the reaction had taken place, the fluorescence data were analysed using the ABI Prism 7000 SDS software, by calculating the threshold cycle (Ct) for each sample and subsequently performing a relative quantification via the ΔΔCt method.
The results obtained, expressed as a percentage of inhibition, are collated in Table 1 below.

[2] = system: MCP-1; test: Measurement of the production of MCP-1 in a human monocyte line (ELISA); format: cell-based; conditions: MONO-MAC-6, 150 μM (maximum soluble concentration), 1 hour pre-incubation, MonoMac6 cells stimulated with LPS 100 ng/ml for 20 hours, supernatant ELISA, read-out: % inhibition of LPS-induced MCP-1 production (produced protein)
Protocol: The capacity of the compounds 1 and 2 to inhibit the expression of the protein MCP-1 by lipopolysaccharide (LPS)-stimulated MonoMac6 cells was evaluated. The cells were placed in 96-well plates at a concentration of 50 000 cells/well. The compounds were tested at the maximum soluble concentration given in Table 2 (in the range 30-300 μM) and incubated for 1 hour. The cells were then stimulated with LPS (100 ng/ml) for 20 hours.
The amount of MCP-1 produced was measured in the supernatants, suitably diluted with buffer, by means of an immunoenzymatic test (ELISA) using a commercial kit (ELISA MCP-1/JE, R&D Systems).
The results obtained, expressed as a percentage of inhibition, are collated in Table 2 below.

[3] = system: CX3CR1; test: Analysis of the gene expression of CX3CR1 in a human monocyte line (real-time RT-PCR); format: cell-based; conditions: 150 μM (maximum soluble concentration), 1 hour pre-incubation; MonoMac6 cells stimulated with LPS 100 ng/ml for 20 hours
Protocol: as §1, with “of CX3CR1” for “of MCP-1”, “Table 3” for “Table 1”, “for 20” for “for 4”
as §2, with “CX3CR1” for “MCP-1”, “NM_001337.3).” for “NM_002982.3).”
The results obtained, expressed as a percentage of inhibition, are collated in Table 3 below.

- melting point: 126 °C (dec.)
Compound: NCC(O)c1nn(Cc2ccccc2)c2ccccc12 (stereo not shown) [Compound 1, 2-amino-1-(1-benzyl-1H-indazol-3-yl)ethanol]
- % inhibition of LPS-induced expression of MCP-1 (specific mRNA) [1]: 64%
- inhibition at 150 µM [2]: 73%
- % inhibition of LPS-induced expression of CX3CR1 (specific mRNA) [3]: 96%

Compound: CCNCC(O)c1nn(Cc2ccccc2)c2ccccc12 (stereo not shown) [Compound 2, 1-(1-benzyl-1H-indazol-3-yl)-2-(ethylamino)ethanol]
- % inhibition of LPS-induced expression of MCP-1 (specific mRNA) [1]: 53%
- inhibition at 150 µM [2]: 67%
- % inhibition of LPS-induced expression of CX3CR1 (specific mRNA) [3]: 85%
